According to paper PMC9516332 (Frontiers in Oncology, 2022):

Assays:
Assay in all cases: Kinase panel profiling at 1 µmol/L (MSA or IMAP), percentage inhibition
Type in all cases: biochemical
[1] = target: panel of 255 wild-type kinases (Homo sapiens, UniProt P17252); conditions: kinase PKCα; 1 µmol/L single concentration; read-out: %-inhibition at 1 µmol/L, PKCα
[2] = target: panel of 255 wild-type kinases (Homo sapiens, UniProt O95819); conditions: kinase HGK; 1 µmol/L single concentration; read-out: %-inhibition at 1 µmol/L, HGK
[3] = target: T1, panel of 255 wild-type kinases (Homo sapiens, UniProt Q12851); conditions: kinase MAP4K2; 1 µmol/L single concentration; read-out: %-inhibition at 1 µmol/L, MAP4K2
T1 sequence (Q12851 1-820): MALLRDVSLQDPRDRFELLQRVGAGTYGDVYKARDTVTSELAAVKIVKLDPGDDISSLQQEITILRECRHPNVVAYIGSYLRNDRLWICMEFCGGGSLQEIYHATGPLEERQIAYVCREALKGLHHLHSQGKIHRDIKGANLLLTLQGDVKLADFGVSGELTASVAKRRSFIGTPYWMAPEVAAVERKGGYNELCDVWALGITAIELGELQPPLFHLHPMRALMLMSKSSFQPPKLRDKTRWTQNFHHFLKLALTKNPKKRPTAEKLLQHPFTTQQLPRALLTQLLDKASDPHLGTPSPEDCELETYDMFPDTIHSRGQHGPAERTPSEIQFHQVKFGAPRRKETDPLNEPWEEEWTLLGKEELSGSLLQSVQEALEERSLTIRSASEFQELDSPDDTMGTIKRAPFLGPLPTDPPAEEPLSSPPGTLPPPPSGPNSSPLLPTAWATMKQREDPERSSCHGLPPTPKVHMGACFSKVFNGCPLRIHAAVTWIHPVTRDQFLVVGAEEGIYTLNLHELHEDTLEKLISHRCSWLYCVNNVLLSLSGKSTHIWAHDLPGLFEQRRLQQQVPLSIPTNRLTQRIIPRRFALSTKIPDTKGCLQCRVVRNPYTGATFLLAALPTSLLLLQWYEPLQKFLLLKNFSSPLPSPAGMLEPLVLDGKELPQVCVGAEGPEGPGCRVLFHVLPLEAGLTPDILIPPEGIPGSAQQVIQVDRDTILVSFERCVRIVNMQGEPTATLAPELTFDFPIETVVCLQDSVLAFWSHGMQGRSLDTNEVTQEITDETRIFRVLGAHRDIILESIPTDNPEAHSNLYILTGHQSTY

[4] = target: T2, panel of 255 wild-type kinases (Homo sapiens, UniProt Q8TF76); conditions: kinase Haspin; 1 µmol/L single concentration; read-out: %-inhibition at 1 µmol/L, Haspin
T2 sequence (Q8TF76 1-798): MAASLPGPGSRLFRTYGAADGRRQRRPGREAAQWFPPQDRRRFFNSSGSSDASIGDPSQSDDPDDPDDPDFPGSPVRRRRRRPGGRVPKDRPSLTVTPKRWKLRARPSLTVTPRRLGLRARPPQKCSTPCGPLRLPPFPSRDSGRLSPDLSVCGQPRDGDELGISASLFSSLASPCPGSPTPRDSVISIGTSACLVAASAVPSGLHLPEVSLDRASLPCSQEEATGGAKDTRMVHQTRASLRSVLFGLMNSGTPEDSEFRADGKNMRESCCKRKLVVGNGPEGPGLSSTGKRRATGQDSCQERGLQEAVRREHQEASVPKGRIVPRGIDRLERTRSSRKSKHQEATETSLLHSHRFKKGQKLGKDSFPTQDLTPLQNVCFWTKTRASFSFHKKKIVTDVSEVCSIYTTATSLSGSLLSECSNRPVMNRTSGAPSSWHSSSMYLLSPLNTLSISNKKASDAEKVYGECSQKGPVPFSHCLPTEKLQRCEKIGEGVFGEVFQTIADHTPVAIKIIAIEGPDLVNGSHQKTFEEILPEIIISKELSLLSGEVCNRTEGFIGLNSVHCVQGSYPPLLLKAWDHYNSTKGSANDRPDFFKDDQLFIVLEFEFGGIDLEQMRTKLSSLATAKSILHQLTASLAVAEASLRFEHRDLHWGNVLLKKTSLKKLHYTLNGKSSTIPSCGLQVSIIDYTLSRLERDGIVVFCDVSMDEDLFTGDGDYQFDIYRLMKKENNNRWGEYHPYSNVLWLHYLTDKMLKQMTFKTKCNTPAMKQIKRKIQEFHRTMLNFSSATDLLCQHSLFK

[5] = target: panel of 255 wild-type kinases (Homo sapiens, UniProt P27448); conditions: MARK3; 1 µmol/L single concentration; read-out: %-inhibition, MARK3
[6] = target: T3, panel of 255 wild-type kinases (Homo sapiens, UniProt P41743); conditions: kinase PKCι; 1 µmol/L single concentration; read-out: %-inhibition at 1 µmol/L, PKCι
T3 sequence (P41743 1-596): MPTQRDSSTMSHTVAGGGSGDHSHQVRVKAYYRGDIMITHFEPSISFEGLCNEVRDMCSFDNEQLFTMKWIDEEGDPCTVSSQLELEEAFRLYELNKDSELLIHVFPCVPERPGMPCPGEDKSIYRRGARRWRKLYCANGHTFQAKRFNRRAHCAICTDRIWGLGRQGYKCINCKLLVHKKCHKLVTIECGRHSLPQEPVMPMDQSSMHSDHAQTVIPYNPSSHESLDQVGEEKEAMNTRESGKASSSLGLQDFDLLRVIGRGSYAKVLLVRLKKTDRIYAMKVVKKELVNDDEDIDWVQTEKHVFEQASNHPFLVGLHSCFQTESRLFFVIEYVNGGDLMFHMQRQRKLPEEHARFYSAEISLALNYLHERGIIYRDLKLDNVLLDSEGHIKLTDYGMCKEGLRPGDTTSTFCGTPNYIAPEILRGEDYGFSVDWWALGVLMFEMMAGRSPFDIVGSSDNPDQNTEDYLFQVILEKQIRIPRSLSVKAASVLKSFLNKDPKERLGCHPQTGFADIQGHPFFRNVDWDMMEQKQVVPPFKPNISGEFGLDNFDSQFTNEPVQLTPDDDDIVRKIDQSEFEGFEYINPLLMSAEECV

[7] = target: panel of 255 wild-type kinases (Homo sapiens, UniProt O00311); conditions: CDC7/ASK kinase assay; 1 µmol/L single concentration; read-out: %-inhibition CDC7/ASK

| SMILES | inhibition at 1 µM [1] [%] | inhibition at 1 µM [2] [%] | inhibition at 1 µM [3] [%] | inhibition at 1 µM [4] [%] | inhibition at 1 µM [5] [%] | inhibition at 1 µM [6] [%] | inhibition at 1 µM [7] [%] |
| --- | --- | --- | --- | --- | --- | --- | --- |
| COc1cc2ncnc(Nc3ccc(F)c(Cl)c3)c2cc1NC(=O)/C=C/CN1CCCCC1 [dacomitinib] | -4.53 | 39 | -2.38 | 13 | 10 | 31 | 0.799 |
| Cn1cc(-c2cc3c(N4CCN(c5ncc([C@@](C)(N)c6ccc(F)cc6)cn5)CC4)ncnn3c2)cn1 [avapritinib] | 5 | 37 | 14 | 59 | -6 | 0.376 | 0.0396 |
| CCn1c(=O)c(-c2cc(NC(=O)Nc3ccccc3)c(F)cc2Br)cc2cnc(NC)cc21 [ripretinib] | -1.85 | 13 | 44 | 1.87 | 1.78 | 21 | 0.278 |
